Where a name gives a salt, the structure may show the parent alone. Read-outs that look alike come from different tables or passages of the source.

A short description of this data set: Measurement of optical absorption spectrum and its pH dependence (ultraviolet visible spectrophotometer). It is filed as physicochemical. As to conditions: for pH dependence of absorption properties: phosphate buffers of various pH, 30% by volume DMSO; for pH dependence of absorption properties / absorption maxima: 1 μM; for absorption maxima / shift of maximum absorption wavelength: in DMSO; for shift of maximum absorption wavelength: aryl piperazine cyanines. As to the method: In order to investigate the optical absorption properties of the synthesized ICG derivatives, absorption spectra were measured and their pH dependence was examined using an ultraviolet visible spectrophotometer at a concentration of 1 μM either in dimethyl sulfoxide (DMSO) or in phosphate buffers of various pH with DMSO as a cosolvent (30% by volume of DMSO and 70% by volume of phosphate buffer).
For each ICG derivative, an absorption spectrum consisted of relative absorbance was obtained by setting the absorbance of the absorption peak near 700 nm in DMSO (absorbance at the maximum absorption wavelength) to 1.
The optical absorption spectra of the IGC derivative PBA-Cy was measured at various pH values in the same manner as in Example 1.
The optical absorption properties of the synthesized ICG derivatives (PPA-Cy and SS-PPA-Cy) were investigated in the same manner as in Example 1, and their pH dependence was examined.

[1] abbreviates: phosphate buffers of various pH with DMSO as cosolvent, from pH dependence of absorption spectra, read-out: pKa.

Take “2-[2-[2-[4-(2-carboxyethyl)piperazinyl]-3-[2-[1,3-dihydro-3,3-dimethyl-1-(3-sulfopropyl)-7-sulfo-2H-benz[e]indol-2-ylidene]ethylidene]cyclohexen-1-yl]ethenyl]-3,3-dimethyl-1-(3-sulfopropyl)-7-sulfo-3H-benz[e]indolium, Inner Salt, Sodium Salt [SS-PPA-Cy]”: the pKa is given as 6.8 and the “pH dependence of absorption properties” value is reported as “the maximum absorption wavelength shifted to the longer wavelength side as the pH became more acidic”.
Turning to “2-[2-[3-[2-[1,3-Dihydro-3,3-dimethyl-1-(3-sulfopropyl)-2H-benz[e]indol-2-ylidene]ethylidene]-2-(4-acetyl-1-piperazinyl)-1-cyclohexen-1-yl]ethenyl]-3,3-dimethyl-1-(3-sulfopropyl)-3H-benz[e]indolium, Inner Salt, Sodium Salt [AcP-Cy]”, the absorption maxima result was “around 800 nm”.
For the compound “2-[2-[3-[2-[1,3-dihydro-3,3-dimethyl-1-(3-sulfopropyl)-2H-benz[e]indol-2-ylidene]ethylidene]-2- [1-(4-nitrophenyl)-piperazinyl]-1-cyclohexen-1-yl]ethenyl]-3,3-dimethyl-1-(3-sulfopropyl)-3H-benz[e]indolium, Inner Salt, Sodium Salt [Nitro-PhP-Cy]”, the “shift of maximum absorption wavelength” value is “the maximum absorption wavelength was shifted to the longer wavelength side”.
In the case of “2-[2-[3-[2-[1,3-dihydro-3,3-dimethyl-1-(3-sulfopropyl)-2H-benz[e]indol-2-ylidene]ethylidene]-2-(4-methyl-1-piperazinyl)-1-cyclohexen-1-yl]ethenyl]-3,3-dimethyl-1-(3-sulfopropyl)-3H-benz[e]indolium, Inner Salt, Sodium Salt [MP-Cy]”, the absorption maxima is around 700 nm and the “pH dependence of absorption properties” value is on record as “the maximum absorption wavelength shifted to the longer wavelength side as the pH became more acidic”.
Consider “2-[2-[3-[2-[1,3-dihydro-3,3-dimethyl-1-(3-sulfopropyl)-2H-benz[e]indol-2-ylidene]ethylidene]-2-(4-methylsulfonyl-1-piperazinyl)-1-cyclohexen-1-yl]ethenyl]-3,3-dimethyl-1-(3-sulfopropyl)-3H-benz[e]indolium, Inner Salt, Sodium Salt [MSP-Cy]”, for which the absorption maxima result was “around 800 nm”.
Take “2-[2-[3-[2-[1,3-dihydro-3,3-dimethyl-1-(3-sulfopropyl)-2H-benz[e]indol-2-ylidene]ethylidene]-2-[1-(4-cyanophenyl)-piperazinyl]-1-cyclohexen-1-yl]ethenyl]-3,3-dimethyl-1-(3-sulfopropyl)-3H-benz[e]indolium, Inner Salt, Sodium Salt [Nitrille-PhP-Cy]”: the “shift of maximum absorption wavelength” value is “the maximum absorption wavelength was shifted to the longer wavelength side”.
Turning to `CC1(C)C(=CC=C2CCCC(C=CC3=[N+](CCCS(=O)(=O)[O-])c4ccc5ccccc5c4C3(C)C)=C2N2CC[N+](C)(C)CC2)N(CCCS(=O)(=O)[O-])c2ccc3ccccc3c21` [DMP-Cy, 2-[2-[3-[2-[1,3-dihydro-3,3-dimethyl-1-(3-sulfopropyl)-2H-benz[e]indol-2-ylidene]ethylidene]-2-(4-dimethyl-1-piperaziniumyl)-1-cyclohexen-1-yl]ethenyl]-3,3-dimethyl-1-(3-sulfopropyl)-3H-benz[e]indolium, Inner Salt, Sodium Salt], the absorption maxima entry is “around 800 nm”.
`CC1(C)C(/C=C/C2=C(N3CCOCC3)C(=C/C=C3/N(CCCS(=O)(=O)[O-])c4ccc5ccccc5c4C3(C)C)/CCC2)=[N+](CCCS(=O)(=O)[O-])c2ccc3ccccc3c21.[Na+]` [Mor-Cy, 2-[2-[3-[2-[1,3-dihydro-3,3-dimethyl-1-(3-sulfopropyl)-2H-benz[e]indol-2-ylidene]ethylidene]-2-(4-morpholinyl)-1-cyclohexen-1-yl]ethenyl]-3,3-dimethyl-1-(3-sulfopropyl)-3H-benz[e]indolium, Inner Salt, Sodium Salt]: the absorption maxima is given as around 700 nm and the “pH dependence of absorption properties” value is “no change in absorption properties due to the pH”.
Turning to `CC1(C)C(/C=C/C2=C(N3CCN(Cc4ccc(CC(=O)O)cc4)CC3)C(=C/C=C3/N(CCCS(=O)(=O)[O-])c4ccc5ccccc5c4C3(C)C)/CCC2)=[N+](CCCS(=O)(=O)[O-])c2ccc3ccccc3c21.[Na+]` [PBA-Cy, 2-[2-[3-[2-[1,3-dihydro-3,3-dimethyl-1-(3-sulfopropyl)-2H-benz[e]indol-2-ylidene]ethylidene]-2-[1-(4-carboxymethylbenzyl)-piperazinyl]-1-cyclohexen-1-yl]ethenyl]-3,3-dimethyl-1-(3-sulfopropyl)-3H-benz[e]indolium, Inner Salt, Sodium Salt], the “pH dependence of absorption properties” value is “shifted to the longer wavelength side as the pH became more acidic”. Further, under setting [1], the pKa was 4.9. Besides, for the setting “used to calculate PBA-Cy concentration in conjugate solution”, the molar absorption coefficient was 32,000 M^−1 cm^−1.
Regarding `CC1(C)C(/C=C/C2=C(N3CCN(CCC(=O)[O-])CC3)C(=C/C=C3/N(CCCS(=O)(=O)[O-])c4ccc5ccccc5c4C3(C)C)/CCC2)=[N+](CCCS(=O)(=O)[O-])c2ccc3ccccc3c21.[Na+].[Na+]` [PPA-Cy, 2-[2-[2-[4-(2-carboxyethyl)piperazinyl]-3-[2-[1,3-dihydro-3,3-dimethyl-1-(3-sulfopropyl)-2H-benz[e]indol-2-ylidene]ethylidene]-1-cyclohexenyl]ethenyl]-3,3-dimethyl-1-(3-sulfopropyl)-3H-benz[e]indolium, Inner Salt, Sodium Salt], the “pH dependence of absorption properties” value is “the maximum absorption wavelength shifted to the longer wavelength side as the pH became more acidic”. In addition, the pKa under setting [1] was found to be 5.7.
Take `CC1(C)C(=CC=C2CCCC(C=CC3=[N+](CCCS(=O)(=O)[O-])c4ccc5ccccc5c4C3(C)C)=C2N2CCCCC2)N(CCCS(=O)(=O)[O-])c2ccc3ccccc3c21.[Na+]` [Piperi-Cy, 2-[2-[3-[2-[1,3-dihydro-3,3-dimethyl-1-(3-sulfopropyl)-2H-benz[e]indol-2-ylidene]ethylidene]-2-(1-piperidinyl)-1-cyclohexen-1-yl]ethenyl]-3,3-dimethyl-1-(3-sulfopropyl)-3H-benz[e]indolium, Inner Salt, Sodium Salt]: the absorption maxima was around 700 nm.
